Measurements as given in EP1514922A1 (priority 2003, dated 2005).

How the values were obtained:
[1] = molecular target: YFP double mutant YFP-H148Q/V163S (Aequorea victoria, UniProt P42212, H148Q/H231L/S65G/S72A/T203Y/V163S/V68L); details: physiological pH (7,35); cited from earlier work
[2] = test system: chloride sensor (ECFP - peptide linker - EYFP with mutations I152L, V163S, H148Q; SEQ ID No. 5); assay: Calibration of chloride sensor emission ratio R=F527/F485 in patch-pipette dialysed cells; assay type: cell-based; details: in HEK293 and BOSC23 cells; Rmax = 2,39, Rmin = 0,49
Description: The chloride sensor was expressed in human kidney derived cell lines (HEK293 and BOSC23) using a calcium phosphate transfection procedure.
Measurements of fluorescence are likely to reflect the average [Cl-] in the intracellular compartment.
The ratio (R) of fluorescence emission of the EYFP acceptor to that of the ECFP donor is R=F527/F485.
To calibrate the fluorescence of chloride sensor within these cells, R is measured while using a patch pipette to manipulate the cytoplasmic concentration of anions. A nominally Cl- free solution containing 150 mM gluconate is used to determine the maximal emission ratio for the chloride sensor (Rmax), whereas a solution containing a saturating concentration (150mM) of Cl- defines the minimal emission ratio (Rmin). The relationship between R and intermediates values of [Cl-] is then determined. This relationship could be described as : [Cl-]= K'd (Rmax - R)/(R - Rmin), [formula] with Rmax = 2,39, Rmin = 0,49 and K'd = 87mM. this calibration curve can then be used to convert R values measured in intracellular compartment of living cells into [Cl-].

[3] = molecular target: YFP double mutant YFP-H148Q/I152L (Aequorea victoria, UniProt P42212, H148Q/H231L/I152L/S65G/S72A/T203Y/V68L); details: cited from earlier work

In the case of chloride [Cl^-], the Kd [1] is listed as 39 mM, the “binding kinetics (τ)” value [1] is listed as 1900 ms and the Kd [2] is listed as 87 mM. For the same substance, the Kd [3] was 85 mM and the “binding kinetics (τ)” value [3] was 52 ms.
